Where a name gives a salt, the structure may show the parent alone.
Target: recombinant GST fusion MALT1 (human MALT1) (Homo sapiens (Human), UniProt Q9UDY8)
Experiment: Evaluation of inhibition of protease activity of MALT1 (cleavage of fluorescent peptide substrate Ac-LRSR-AMC)
Type: biochemical
Conditions: substrate Ac-LRSR-AMC 20 μmol/L, 30° C. for 80 minutes
Protocol: The guanidine derivative (I) or the pharmacologically acceptable salt thereof was evaluated for its inhibition of the protease activity of MALT1 in an in vitro experimental system in accordance with the method described in the literature (Cancer Cell, 2012, Vol. 22, p. 825-837). Specifically, the evaluation was conducted by measuring the degree of reduction in fluorescence value by the compound relative to elevation in fluorescence value resulting from the cleavage of a fluorescently labeled artificial peptide substrate by recombinant MALT1.
A) Preparation of Recombinant GST Fusion MALT1:
Full-length cDNA of human MALT1 gene (GenBank accession No: AB026118.1) amplified by PCR was inserted in flame to a SalI site located downstream of GST gene in a pGEX6P3 vector (GE Healthcare Japan Corp.) to prepare a vector (hereinafter, referred to as a pGEX6P3-MALT1 vector). Subsequently, E. coli for protein expression (BL21-RIL-codon plus-DE3, Agilent Technologies, Inc.) was transformed with the pGEX6P3-MALT1 vector and then analyzed by ampicillin resistance screening and colony PCR to obtain an E. coli strain expressing recombinant GST fusion MALT1. Protein expression was induced with isopropyl-(3-thiogalactopyranoside. After the expression induction, E. coli precipitates were recovered by centrifugation from the E. coli culture solution, and the E. coli precipitates were homogenized and then centrifuged to obtain a supernatant. The supernatant was purified using GSTrap FF column (GE Healthcare Japan Corp.) to obtain recombinant GST fusion MALT1.
B) Evaluation of Inhibition of Protease Activity of MALT1:
To 89 μL of an enzyme solution ([…] GST fusion MALT1, 50 mmol/L MES, 150 mmol/L NaCl, 10% sucrose, 0.1% CHAPS, 10 mmol/L dithiothreitol, and 1 mol/L tri-ammonium citrate) per specimen, 1 μL of a test compound (DMSO-diluted solution) of each concentration was added to prepare a mixed solution. The mixed solution was incubated at room temperature for 30 minutes, followed by the measurement of the fluorescence value of the mixed solution (fluorescence value of the first measurement) (Ex: 380 nm, Em: 460 nm; Envision (Perkin Elmer Inc.)). Next, 10 μL of 200 μmol/L substrate (Ac-LRSR-AMC, SM Biochemicals LLC) was added (final concentration: 20 μmol/L) to the mixed solution, and the mixture was reacted by incubation at 30° C. for 80 minutes, followed by the measurement of the fluorescence value of the reaction solution (fluorescence value of the second measurement) (Ex: 380 nm, Em: 460 nm; Envision (Perkin Elmer Inc.)). A “well nonsupplemented with the test compound (only DMSO was added), nonsupplemented with the enzyme and supplemented with the substrate”, and a “well nonsupplemented with the test compound (only DMSO was added), supplemented with the enzyme and supplemented with the substrate” were established.
The fluorescence value of the first measurement was defined as “F1”, and the fluorescence value of the second measurement was defined as “F2”. F2−F1 of the “well nonsupplemented with the test compound (only DMSO was added), nonsupplemented with the enzyme and supplemented with the substrate” was defined as “Fback”, F2−F1 of the “well nonsupplemented with the test compound (only DMSO was added), supplemented with the enzyme and supplemented with the substrate” was defined as “Fpositive”, and F2−F1 of the “well supplemented with the test compound, supplemented with the enzyme and supplemented with the substrate” was defined as “Fsample”. The rate of inhibition (%) of the protease activity of MALT1 by the test compound was calculated according to the following expression. Rate of inhibition (%)=100×(1−(Fsample−Fback)/(Fpositive−Fback))

Chain of recombinant GST fusion MALT1 (human MALT1) (Q9UDY8 whole entry, the tested form may be a part): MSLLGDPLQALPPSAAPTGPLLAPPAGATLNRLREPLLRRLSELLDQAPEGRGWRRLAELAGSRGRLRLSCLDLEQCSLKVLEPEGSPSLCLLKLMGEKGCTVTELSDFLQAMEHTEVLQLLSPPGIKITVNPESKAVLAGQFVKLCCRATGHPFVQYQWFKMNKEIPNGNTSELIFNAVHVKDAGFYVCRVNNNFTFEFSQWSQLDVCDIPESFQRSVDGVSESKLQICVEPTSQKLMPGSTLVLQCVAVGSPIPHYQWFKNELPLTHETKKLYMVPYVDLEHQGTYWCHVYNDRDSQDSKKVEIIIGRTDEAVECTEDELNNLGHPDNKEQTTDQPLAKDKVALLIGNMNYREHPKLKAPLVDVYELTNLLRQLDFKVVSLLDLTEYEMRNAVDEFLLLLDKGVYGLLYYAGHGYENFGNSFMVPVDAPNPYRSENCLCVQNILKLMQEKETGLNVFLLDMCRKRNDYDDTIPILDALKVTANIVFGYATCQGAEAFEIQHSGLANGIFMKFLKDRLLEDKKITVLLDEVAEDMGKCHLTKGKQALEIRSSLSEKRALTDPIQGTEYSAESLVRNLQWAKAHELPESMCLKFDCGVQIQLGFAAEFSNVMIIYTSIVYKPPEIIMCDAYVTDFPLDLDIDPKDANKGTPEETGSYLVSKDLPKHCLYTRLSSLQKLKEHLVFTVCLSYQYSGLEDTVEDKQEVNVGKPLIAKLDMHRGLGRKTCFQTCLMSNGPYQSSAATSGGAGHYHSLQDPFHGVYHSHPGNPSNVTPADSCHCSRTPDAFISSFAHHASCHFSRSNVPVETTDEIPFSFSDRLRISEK

Row | IC50 | Compound
1 | 341 nM | N/C(=N\C(=O)C1CCCC1)NCc1cnc(-c2ccc(Cl)cc2)c(-c2ccc(Cl)cc2)c1 [Compound of Example 70, N-(amino(((5,6-bis(4-chlorophenyl)pyridin-3-yl)methyl)amino)methylene)cyclopentanecarboxamide]
2 | 2140 nM | N/C(=N\S(=O)(=O)c1cccc(O)c1)NCc1cnc(-c2ccc(Cl)cc2)c(-c2ccc(Cl)cc2)c1 [Compound of Example 96, N-(amino(((5,6-bis(4-chlorophenyl)pyridin-3-yl)methyl)amino)methylene)-3-hydroxybenzenesulfonamide Hydrochloride]
3 | 185 nM | CCOc1cccc(S(=O)(=O)/N=C(\N)NCc2cnc(-c3ccc(Cl)cc3)c(-c3ccc(Cl)cc3)c2)c1 [Compound of Example 51, N-(amino(((5,6-bis(4-chlorophenyl)pyridin-3-yl)methyl)amino)methylene)-3-ethoxybenzenesulfonamide]
4 | 104 nM | COc1nc(-c2ccc(Cl)cc2)c(-c2ccc(Cl)cc2)cc1CN/C(N)=N/S(=O)(=O)c1ccccc1 [Compound of Example 88, N-(amino(((5,6-bis(4-chlorophenyl)-2-methoxypyridin-3-yl)methyl)amino)methylene)benzenesulfonamide]
5 | 1380 nM | N/C(=N\C(=O)CC(F)(F)F)NCc1cnc(-c2ccc(Cl)cc2)c(-c2ccc(Cl)cc2)c1 [Compound of Example 84, N-(amino(((5,6-bis(4-chlorophenyl)pyridin-3-yl)methyl)amino)methylene)-3,3,3-trifluoropropanamide]
6 | 23 nM | NC(=NS(=O)(=O)c1cccs1)NCc1cc(-c2ccc(Cl)cc2)c(-c2ccc(Cl)cc2)cn1 [Compound of Example 43, N-(amino(((4,5-bis(4-chlorophenyl)pyridin-2-yl)methyl)amino)methylene)thiophene-2-sulfonamide]
7 | 817 nM | N/C(=N\C(=O)c1ccc(C(F)(F)F)cc1)NCc1cnc(-c2ccc(Cl)cc2)c(-c2ccc(Cl)cc2)c1 [Compound of Example 77, N-(amino(((5,6-bis(4-chlorophenyl)pyridin-3-yl)methyl)amino)methylene)-4-trifluoromethylbenzamide]
8 | 234 nM | Cc1nc(-c2ccc(Cl)cc2)c(-c2ccc(Cl)cc2)cc1CN/C(N)=N/S(=O)(=O)c1ccccc1 [Compound of Example 90, N-(amino(((5,6-bis(4-chlorophenyl)-2-methylpyridin-3-yl)methyl)amino)methylene)benzenesulfonamide]
9 | 1040 nM | N/C(=N\S(=O)(=O)c1ccccc1)NCc1cnc(-c2ccc(Cl)cc2)c(-c2ccc(C(F)(F)F)cc2)c1 [Compound of Example 21, N-(Amino(((6-(4-chlorophenyl)-5-(4-(trifluoromethyl)phenyl)pyridin-3-yl)methyl)amino)methylene)benzenesulfonamide]
10 | 353 nM | N/C(=N\C(=O)Cc1ccccc1)NCc1cnc(-c2ccc(Cl)cc2)c(-c2ccc(Cl)cc2)c1 [Compound of Example 75, N-(amino(((5,6-bis(4-chlorophenyl)pyridin-3-yl)methyl)amino)methylene)-2-phenylacetamide]
11 | 565 nM | N/C(=N\C(=O)C1CC1)NCc1cnc(-c2ccc(Cl)cc2)c(-c2ccc(Cl)cc2)c1 [Compound of Example 71, N-(amino(((5,6-bis(4-chlorophenyl)pyridin-3-yl)methyl)amino)methylene)cyclopropanecarboxamide]
12 | 1400 nM | N/C(=N\S(=O)(=O)c1ccccc1)NCc1cnc(-c2cccc(Cl)c2)c(-c2ccc(Cl)cc2)c1 [Compound of Example 4, N-(amino(((6-(3-chlorophenyl)-5-(4-chlorophenyl)pyridin-3-yl)methyl)amino)methylene)benzenesulfonamide]
13 | 297 nM | N/C(=N\S(=O)(=O)c1ccccc1)NCc1cnc(-c2ccc(OC(F)(F)F)cc2)c(-c2ccc(Cl)cc2)c1 [Compound of Example 10, N-(amino(((5-(4-chlorophenyl)-6-(4-(trifluoromethoxy)phenyl)pyridin-3-yl)methyl)amino)methylene)benzenesulfonamide]
14 | 66 nM | Cc1ccc(-c2ncc(CN/C(N)=N/S(=O)(=O)c3ccccc3)cc2-c2ccc(Cl)cc2)cc1 [Compound of Example 5, N-(amino(((5-(4-chlorophenyl)-6-(4-methylphenyl)pyridin-3-yl)methyl)amino)methylene)benzenesulfonamide]
15 | 37 nM | CN/C(=N\S(=O)(=O)c1ccccc1)NCc1cnc(-c2ccc(Cl)cc2)c(-c2ccc(Cl)cc2)c1 [Compound of Example 40]
16 | 743 nM | N/C(=N\S(=O)(=O)C1CC1)NCc1cnc(-c2ccc(Cl)cc2)c(-c2ccc(Cl)cc2)c1 [Compound of Example 58, N-(amino(((5,6-bis(4-chlorophenyl)pyridin-3-yl)methyl)amino)methylene)cyclopropanesulfonamide]
17 | 1320 nM | CN(C)S(=O)(=O)/N=C(\N)NCc1cnc(-c2ccc(Cl)cc2)c(-c2ccc(Cl)cc2)c1 [Compound of Example 60, ((2-amino-2-(((5,6-bis(4-chlorophenyl)pyridin-3-yl)methyl)amino)-1-azavinyl)sulfonyl)dimethylamine]
18 | 1110 nM | N/C(=N\S(=O)(=O)c1ccccc1)NCc1cnc(-c2ccc(Cl)cc2)c(-c2ccc(F)cc2)c1 [Compound of Example 20, N-(amino(((6-(4-chlorophenyl)-5-(4-fluorophenyl)pyridin-3-yl)methyl)amino)methylene)benzenesulfonamide]
19 | 2410 nM | N/C(=N\S(=O)(=O)c1ccccc1)NCc1cnc(-c2ccc(Cl)cc2)c(-c2ccccc2Cl)c1 [Compound of Example 16, N-(amino(((5-(2-chlorophenyl)-6-(4-chlorophenyl)pyridin-3-yl)methyl)amino)methylene)benzenesulfonamide]
20 | 106 nM | O=S(=O)(/N=C(\NO)NCc1cnc(-c2ccc(Cl)cc2)c(-c2ccc(Cl)cc2)c1)c1ccccc1 [Compound of Example 39, N-((((5,6-bis(4-chlorophenyl)pyridin-3-yl)methyl)amino)(hydroxyamino)methylene)benzenesulfonamide]
21 | 534 nM | CCOC(=O)/N=C(\N)NCc1cnc(-c2ccc(Cl)cc2)c(-c2ccc(Cl)cc2)c1 [Compound of Example 81, 1-((5,6-bis(4-chlorophenyl)pyridin-3-yl)methyl)-2-(ethoxycarbonyl)guanidine Hydrochloride]
22 | 192 nM | N#Cc1ccc(-c2ncc(CN/C(N)=N/S(=O)(=O)c3ccccc3)cc2-c2ccc(Cl)cc2)cc1 [Compound of Example 7, N-(amino(((5-(4-chlorophenyl)-6-(4-cyanophenyl)pyridin-3-yl)methyl)amino)methylene)benzenesulfonamide]
23 | 1270 nM | COc1ccc(-c2cc(CN/C(N)=N/S(=O)(=O)c3ccccc3)cnc2-c2ccc(Cl)cc2)cc1F [Compound of Example 37, N-(amino(((6-(4-chlorophenyl)-5-(3-fluoro-4-methoxyphenyl)pyridin-3-yl)methyl)amino)methylene)benzenesulfonamide]
24 | 112 nM | N/C(=N\S(=O)(=O)c1ccccc1)NCc1cc(-c2ccc(Cl)cc2)c(-c2ccc(Cl)cc2)nc1O [Compound of Example 91, N-(amino(((5,6-bis(4-chlorophenyl)-2-hydroxypyridin-3-yl)methyl)amino)methylene)benzenesulfonamide]
25 | 315 nM | N/C(=N\S(=O)(=O)c1ccccc1F)NCc1cnc(-c2ccc(Cl)cc2)c(-c2ccc(Cl)cc2)c1 [Compound of Example 26, N-(amino(((5,6-bis(4-chlorophenyl)pyridin-3-yl)methyl)amino)methylene)-2-fluorobenzenesulfonamide]

Reference: US10662156B2, “Guanidine derivative and medical use thereof” (Toray Industries, Inc., priority 2016, dated 2020)
